Laboratory results reported in paper PMC5321434, “Dihydrobenz[e][1,4]oxazepin-2(3H)-ones, a new anthelmintic chemotype immobilising whipworm and reducing infectivity in vivo” (PLoS Neglected Tropical Diseases, 2017).

Test system: adult T. muris
Test: Ex vivo adult T. muris automated motility assay (primary/secondary screen at 100 μM and dose-response)
Set-up: species or system Trichuris muris
Conditions: 100 μM; for COMBINED_SCREEN_ACTIVITY: combined primary and secondary screen minus log fold change in movement, adult T. muris; for PRIMARY_SCREEN_MINUS_LOG_FOLD_CHANGE_MOVEMENT: primary screen; for PRIMARY_SCREEN_MINUS_LOG_FOLD_CHANGE_MOVEMENT / SECONDARY_SCREEN_MINUS_LOG_FOLD_CHANGE_MOVEMENT: adult T. muris motility; for SECONDARY_SCREEN_MINUS_LOG_FOLD_CHANGE_MOVEMENT: secondary screen
Method: Severe combined immune deficiency (SCID) mice were bred in the Biological Services Facility at the University of Manchester. Both male and female SCID mice were infected with a high dose of 200 infective embryonated T. muris eggs via oral gavage. At day 35 post-infection, groups of 5 mice were killed and their […] colons removed. Guts were opened longitudinally, washed with pre-warmed Roswell Park Memorial Institute (RPMI) 1640 media supplemented with penicillin (500U/ml) and streptomycin (500μg/ml) and adult T. muris worms gently removed using fine forceps. Worms removed from SCID mice were maintained in RPMI-1640 media supplemented with penicillin (500U/ml) and streptomycin (500μg/ml) at approximately 37°C and studied on the same day. Using fine forceps, individual live worms were placed into 96 well plates containing 75μl of RPMI-1640 medium supplemented with penicillin (500U/ml) and streptomycin (500μg/ml) plus 1% final concentration of DMSO or compound dissolved in DMSO. In the primary screen the test compound concentration was 100μM. Plates were then incubated at 37°C, 5% CO2, and motility was analysed after 24 hours. Worm movement was quantified using an automated motility assay. This system gives an estimate of worm movement in each well by thresholding and quantifying pixel intensity variance over time. An earlier version of this system has been previously described. One adult T. muris worm was used per well, with one well per compound in each replicate of the primary screen. The primary screen was repeated each week for a period of four weeks giving four independent biological replicates from separate parasite batches for each compound. Dose-response curves were calculated with the four factor log-logistic model using the R package drc. The primary screen was carried out at 100μM final concentration. Assay plates were assigned unique IDs and statistical analysis was performed without knowledge of compound identities using R scripts. Once hit wells were identified, well/plate positions were mapped to compound identities using DataWarrior [28]. […] Compounds identified as having encouraging activity from the DMSO solution samples were then resynthesized for confirmatory testing.

SMILES | COMBINED_SCREEN_ACTIVITY | PRIMARY_SCREEN_MINUS_LOG_FOLD_CHANGE_MOVEMENT | SECONDARY_SCREEN_MINUS_LOG_FOLD_CHANGE_MOVEMENT
O=C1COCc2cc(Br)ccc2N1Cc1ccccc1 [Compound 54] | 0.1915 | 0.1915 | –
O=C1COCc2c(Br)cccc2N1Cc1ccccc1 [Compound 55] | 1.386 | 1.386 | –
COCCN1C(=O)COCc2ccc(-c3cc(F)cc(F)c3)cc21 [Compound 56] | -1.686 | -1.686 | –
Cn1cc(-c2ccc3c(c2)COCC(=O)N3Cc2ccccc2)cn1 [Compound 58] | 0.8104 | 0.8104 | –
Cn1cc(-c2ccc3c(c2)N(Cc2ccccc2)C(=O)COC3)cn1 [Compound 59] | -0.5338 | -0.5338 | –
O=C1COCc2ccc(-c3ccncc3)cc2N1CC1CCCCC1 [Compound 60] | 7.742 | 7.742 | –
O=C1COCc2ccc(-c3cccnc3)cc2N1CC1CCCCC1 [Compound 61] | 11.7341 | 10.8493 | 12.6188
O=C(O)c1cccc(-c2ccc3c(c2)N(CC2CC2)C(=O)COC3)c1 [Compound 62] | -1.551 | -1.551 | –
COCc1cccc(-c2ccc3c(c2)N(CC2CC2)C(=O)COC3)c1 [Compound 63] | -1.629 | -1.629 | –
O=C1COCc2cc(Br)ccc2N1CC1CCCCC1 [Compound 64] | 3.118 | 3.494 | 2.742
O=C1COCc2ccc(Br)cc2N1CC1CCCCC1 [Compound 65] | -1.362 | -1.362 | –
COCCN1C(=O)COCc2ccc(-c3cccc(C(C)C)c3)cc21 [Compound 66] | 7.026 | 7.026 | –
Cn1cc(-c2ccc3c(c2)COCC(=O)N3CC2CCCCC2)cn1 [Compound 67] | 7.315 | 2.012 | 12.6188
Cn1cc(-c2ccc3c(c2)N(CC2CCCCC2)C(=O)COC3)cn1 [Compound 68] | -0.9119 | -0.9119 | –
COc1ccc(F)cc1-c1ccc2c(c1)N(CC1CC1)C(=O)COC2 [Compound 69] | 11.5841 | 10.5493 | 12.6188
COc1cc(F)ccc1-c1ccc2c(c1)N(CC1CC1)C(=O)COC2 [Compound 70] | 11.6216 | 10.6243 | 12.6188
COCCN1C(=O)COCc2ccc(-c3cccc(COC)c3)cc21 [Compound 71] | -1.553 | -1.553 | –
O=C1COCc2cc(-c3cccnc3)ccc2N1CCc1ccccc1 [Compound 73] | 3.006 | 3.006 | –
O=C1COCc2ccc(-c3cccnc3)cc2N1CCc1ccccc1 [Compound 74] | -0.776 | -0.776 | –
O=C1COCc2cc(-c3ccncc3)ccc2N1CCc1ccccc1 [Compound 75] | 2.679 | 2.679 | –
Cc1ccccc1CN1C(=O)COCc2ccc(-c3cccnc3)cc21 [Compound 76] | -0.5388 | -0.5388 | –
COCCN1C(=O)COCc2ccc(-c3ccc(F)cc3OC)cc21 [Compound 77] | 0.2033 | 0.2033 | –

SMILES | COMBINED_SCREEN_ACTIVITY | PRIMARY_SCREEN_MINUS_LOG_FOLD_CHANGE_MOVEMENT | SECONDARY_SCREEN_MINUS_LOG_FOLD_CHANGE_MOVEMENT
O=C1COCc2cc(-c3cccc(O)c3)ccc2N1Cc1ccccc1 [Compound 78] | -0.318 | -0.318 | –
O=C1COCc2cc(Br)ccc2N1CCc1ccccc1 [Compound 79] | -0.767 | -0.767 | –
O=C1COCc2ccc(Br)cc2N1CCc1ccccc1 [Compound 80] | 10.5493 | 10.5493 | –
Cc1ccccc1CN1C(=O)COCc2ccc(Br)cc21 [Compound 81] | 11.5466 | 10.4743 | 12.6188
Cc1ccc(CN2C(=O)COCc3cc(-c4cnn(C)c4)ccc32)cc1 [Compound 82] | 0.6432 | 0.6432 | –
COCCN1C(=O)COCc2ccc(-c3ccc(F)c(Cl)c3)cc21 [Compound 83] | 1.936 | 1.936 | –
COCCN1C(=O)COCc2ccc(-c3cc(F)cc(Cl)c3)cc21 [Compound 84] | 0.4605 | 0.4605 | –
O=C1COCc2ccc(-c3ccccc3)cc2N1CCN1CCOCC1 [Compound 85] | 0.2067 | 0.2067 | –
O=C1COCc2ccc(-c3cccnc3)cc2N1CCN1CCOCC1 [Compound 86] | -1.564 | -1.564 | –
COCCN1C(=O)COCc2ccc(-c3cccc(NC(C)=O)c3)cc21 [Compound 88] | -0.1104 | -1.635 | 1.414
N#Cc1cccc(-c2ccc3c(c2)N(Cc2ccccc2)C(=O)COC3)c1 [Compound 89] | 0.3109 | 0.3109 | –
N#Cc1cccc(-c2ccc3c(c2)COCC(=O)N3Cc2ccccc2)c1 [Compound 90] | -1.512 | -1.512 | –
O=C1COCc2cc(Br)ccc2N1CCN1CCOCC1 [Compound 91] | -2.221 | -2.221 | –
O=C1COCc2ccc(Br)cc2N1CCN1CCOCC1 [Compound 92] | -1.293 | -1.293 | –
COCCN1C(=O)COCc2ccc(-c3cccc(C(=O)OC)c3)cc21 [Compound 93] | -1.513 | -1.513 | –
COc1ccccc1-c1cccc2c1COCC(=O)N2Cc1ccccc1 [Compound 94] | 10.5493 | 10.5493 | –
COc1ccccc1-c1ccc2c(c1)COCC(=O)N2Cc1ccccc1 [Compound 95] | -1.179 | -1.179 | –
COc1ccccc1-c1ccc2c(c1)N(Cc1ccccc1)C(=O)COC2 [Compound 96] | -0.4906 | -0.4906 | –
O=C1COCc2cc(-c3cccc(O)c3)ccc2N1CCc1ccccc1 [Compound 97] | -0.7944 | -0.7944 | –
Cc1ccc(CN2C(=O)COCc3cc(-c4cccc(O)c4)ccc32)cc1 [Compound 98] | -1.09 | -1.09 | –
O=C1COCc2ccc(-c3cccc(O)c3)cc2N1CCc1ccccc1 [Compound 99] | -1.58 | -1.58 | –
COc1ccc(-c2ccc3c(c2)N(Cc2ccccc2)C(=O)COC3)cc1 [Compound 100] | 3.027 | 3.027 | –
